Consider 5 compounds from article PMC3363326 (ACS medicinal chemistry letters, 2012).

The term IC50 denotes the midpoint of a concentration-inhibition curve. Broadly, the Ki is a dissociation constant, usually derived from enzyme kinetics or from competition with a known ligand. A higher Ki goes with weaker binding. The MIC90 is an inhibitory concentration at the 90% level, which refers to growth in some studies and to a panel of isolates in others.

Data set [1] deals with staphyloxanthin pigment formation. As to conditions: read-out: carotenoid pigment formation in cells IC50; cited from earlier work.
Data set [2] deals with T1, S. aureus CrtM (Staphylococcus aureus, UniProt A9JQL9). The conditions noted are these: read-out: CrtM IC50; cited from earlier work.
Data set [3] addresses T1, S. aureus CrtM. Put plainly: S. aureus CrtM. Type of data set: biochemical.
The target of data set [4] is T2, S. aureus UPPS (Staphylococcus aureus, UniProt P60477).
T2 sequence (P60477 1-256): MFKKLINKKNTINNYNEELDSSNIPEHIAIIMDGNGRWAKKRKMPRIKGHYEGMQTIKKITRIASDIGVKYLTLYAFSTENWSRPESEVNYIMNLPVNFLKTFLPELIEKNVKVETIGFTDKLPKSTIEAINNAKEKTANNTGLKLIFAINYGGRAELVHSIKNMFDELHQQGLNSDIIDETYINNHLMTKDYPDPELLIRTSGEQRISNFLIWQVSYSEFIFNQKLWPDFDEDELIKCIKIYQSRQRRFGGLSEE
Put plainly: S. aureus UPPS inhibition. The class given is biochemical.

Data set [5] relates to MCF-7. Put plainly: Toxicity against human cell line. The class given is cell-based.
The test system of data set [6] is E. coli. Put plainly: E. coli cell growth inhibition. Type of data set: cell-based. The conditions noted are these: DH5α, K12.
Data set [7] deals with USA300 (MRSA) strain of S. aureus. In words: S. aureus cell growth inhibition. Type of data set: cell-based. As to conditions: Staphylococcus aureus, MRSA|USA300, read-out: MIC90 against S. aureus.
Data set [8] relates to bacteria. As to conditions: background statement, no reference given; cited from earlier work.
Data set [9] has as its system FPPS. The conditions noted are these: background statement, no reference given; cited from earlier work.

Values after ≈ are worked out from the molar mass of the structure shown.

T1 sequence (A9JQL9 whole entry): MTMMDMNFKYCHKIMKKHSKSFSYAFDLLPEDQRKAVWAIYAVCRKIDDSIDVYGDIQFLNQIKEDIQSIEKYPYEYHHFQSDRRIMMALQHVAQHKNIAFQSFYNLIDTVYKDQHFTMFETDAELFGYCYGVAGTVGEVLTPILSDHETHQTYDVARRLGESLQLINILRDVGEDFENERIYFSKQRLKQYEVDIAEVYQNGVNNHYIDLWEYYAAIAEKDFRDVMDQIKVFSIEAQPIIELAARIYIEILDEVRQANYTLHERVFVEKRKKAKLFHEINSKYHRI

Regarding `O=P(O)(O)C(CCCc1cccc(Oc2ccccc2)c1)S(=O)(=O)O` (stereo not shown) [Compound 3], the IC50 was approximately 110 nM in data set [1] and approximately 7900 nM in data set [2].

As for `CCCCCCCCCCOc1cccc(Cn2ccc(O)c(C(=O)O)c2=O)c1` [Compound 42], in data set [3], the “CrtM inhibition, in words” value was “no activity”.

Take `CCCCCCCCCCOc1cccc(C(=O)/C=C(\O)C(=O)O)c1` [Compound 44]: in data set [4], the Ki turned out to be 230 nM.

With `CCCCCCCCOc1ccc(C(=O)/C=C(\O)C(=O)O)cc1` [Compound 45], the affinity in data set [4] corresponds to a Ki of 670 nM. For the same compound, the “activity against human cell lines” value in [5] was “very little activity”. For the same compound, in data set [6], the “activity against E. coli” value was “very little activity”. Further, the MIC90 in [7] is 0.25 to 0.5 µg/mL (≈ 0.78 to 1.56 µM).

Take `O=P(O)(O)C(O)(Cn1ccnc1)P(=O)(O)O` [zoledronate]: the antibacterial activity entry in data set [8] is listed as “little antibacterial activity”. For the same compound, the FPPS inhibition potency entry in data set [9] is “potent, low nM inhibitors”.
